Source: ChEMBL document CHEMBL1146267, “2,6-Disubstituted N-arylsulfonyl piperidines as gamma-secretase inhibitors” (Bioorg Med Chem Lett, 2007)
pIC50: −log10 of the molar value.

Molecular target: Gamma-secretase
Assay: Inhibition of gamma secretase-mediated amyloid-beta peptid […]
Assay type: protein-complex assay, Homo sapiens

Structure (SMILES) | pIC50
O=C(NCCCn1ccnc1)OCC1CCc2ccc(F)cc2N1S(=O)(=O)c1ccc(Cl)cc1 (configuration not stated) | 6.57
CC1CCC2CCCCC2N1S(=O)(=O)c1ccc(Cl)cc1 (configuration not stated) | 5.60
O=C(OCC1CCc2ccc(F)cc2N1S(=O)(=O)c1ccc(Cl)cc1)N1CCCC1 (configuration not stated) | 6.17
O=C(NCCCn1ccnc1)OCC1CCCCN1S(=O)(=O)c1ccc(Cl)cc1 (configuration not stated) | 4.81
O=C(OC[C@H]1CCC[C@@H](c2cccc(F)c2)N1S(=O)(=O)c1ccc(Cl)cc1)N1CCC(N2CCCCC2)CC1 [listing 1 of 2 here] | 8.52
O=C(OC[C@H]1CCC[C@@H](c2cccc(F)c2)N1S(=O)(=O)c1ccc(Cl)cc1)N1CCC(N2CCCCC2)CC1 [listing 2 of 2 here] | 7.08
CC1CN(C2CCCCC2)CCN1C(=O)OC[C@H]1CCC[C@@H](c2ccccc2)N1S(=O)(=O)c1ccc(Cl)cc1 (mixture of isomers) | 7.15
CC1CN(CC2CC2)CCN1C(=O)OC[C@H]1CCC[C@@H](c2ccccc2)N1S(=O)(=O)c1ccc(Cl)cc1 (mixture of isomers) | 7.43
CC1CN(CC2CC2)CCN1C(=O)OC[C@H]1CCC[C@@H](c2cccc(F)c2)N1S(=O)(=O)c1ccc(Cl)cc1 (mixture of isomers) | 7.59
CC1CC(N2CCCCC2)CCN1C(=O)OC[C@H]1CCC[C@@H](c2cccc(F)c2)N1S(=O)(=O)c1ccc(Cl)cc1 (mixture of isomers) | 7.89
CC1CC(N2CCCCC2)CCN1C(=O)OC[C@H]1CCC[C@@H](c2cc(F)cc(F)c2)N1S(=O)(=O)c1ccc(Cl)cc1 (mixture of isomers) | 8.15
C[C@@H]1CCC[C@H](COC(=O)N2CCC(N(C)C3CCN(C)CC3)CC2)N1S(=O)(=O)c1ccc(Cl)cc1 (racemic) | 6.66
C[C@@H]1CCC[C@H](COC(=O)N2CCC(N3CCCCC3)CC2)N1S(=O)(=O)c1ccc(Cl)cc1 (racemic) | 7.12
CC[C@@H]1CCC[C@H](COC(=O)N2CCC(N(C)C3CCN(C)CC3)CC2)N1S(=O)(=O)c1ccc(Cl)cc1 (racemic) | 6.80
O=C(OC[C@H]1CCC[C@@H](Cc2ccccc2)N1S(=O)(=O)c1ccc(Cl)cc1)N1CCC(N2CCCCC2)CC1 (racemic) | 5.32
O=C(OC[C@H]1CCC[C@@H](c2ccccc2F)N1S(=O)(=O)c1ccc(Cl)cc1)N1CCN(C2CCCCC2)CC1 (racemic) | 7.77

Structure (SMILES) | pIC50
O=C(OC[C@H]1CCC[C@@H](c2cccc(F)c2)N1S(=O)(=O)c1ccc(Cl)cc1)N1CCN(C2CCCCC2)CC1 (racemic) | 7.42
O=C(OC[C@H]1CCC[C@@H](c2cccc(F)c2)N1S(=O)(=O)c1ccc(Cl)cc1)N1CCC(N2CCCCC2)CC1 (racemic) | 7.96
O=C(OC[C@H]1CCC[C@@H](c2cc(F)ccc2F)N1S(=O)(=O)c1ccc(Cl)cc1)N1CCN(C2CCCCC2)CC1 (racemic) | 7.55
O=C(OC[C@H]1CCC[C@@H](c2cc(F)cc(F)c2)N1S(=O)(=O)c1ccc(Cl)cc1)N1CCN(C2CCCCC2)CC1 (racemic) | 7.44
O=C(OC[C@H]1CCC[C@@H](c2cc(F)cc(F)c2)N1S(=O)(=O)c1ccc(Cl)cc1)N1CCC(N2CCCCC2)CC1 (racemic) | 8.40
O=C(OC[C@H]1CCC[C@@H](c2ccc(F)c(F)c2)N1S(=O)(=O)c1ccc(Cl)cc1)N1CCC(N2CCCCC2)CC1 (racemic) | 8.10
CN1CCC(N(C)C2CCN(C(=O)OC[C@H]3CCC[C@@H](Cc4ccccc4)N3S(=O)(=O)c3ccc(Cl)cc3)CC2)CC1 (racemic) | 4.91
O=C(OC[C@H]1CCC[C@@H](c2cc(F)ccc2F)N1S(=O)(=O)c1ccc(Cl)cc1)N1CCC(N2CCCCC2)CC1 (racemic) | 8.00
O=C(OC[C@H]1CCC[C@@H](c2ccc(F)c(F)c2)N1S(=O)(=O)c1ccc(Cl)cc1)N1CCN(C2CCCCC2)CC1 (racemic) | 7.59
O=C(OC[C@H]1CCC[C@@H](c2ccccc2)N1S(=O)(=O)c1ccc(Cl)cc1)N1CCN(C2CCCCC2)CC1 (racemic) | 7.17
O=C(OC[C@H]1CCC[C@@H](c2ccccc2F)N1S(=O)(=O)c1ccc(Cl)cc1)N1CCC(N2CCCCC2)CC1 (racemic) | 8.10
O=C(OC[C@H]1CCC[C@@H](c2ccccc2)N1S(=O)(=O)c1ccc(Cl)cc1)N1CCC(N2CCCCC2)CC1 (racemic) | 7.80
C[C@@H]1CCC[C@@H](COC(=O)NCCCn2ccnc2)N1S(=O)(=O)c1ccc(Cl)cc1 (relative stereo) | 5.19
C[C@@H]1CCC[C@H](COC(=O)NCCCn2ccnc2)N1S(=O)(=O)c1ccc(Cl)cc1 (relative stereo) | 6.24
C[C@@H]1CCC[C@H](COC(=O)N2CCCC2)N1S(=O)(=O)c1ccc(Cl)cc1 (relative stereo) | 5.71
C[C@@H]1CCC[C@@H](COC(=O)N2CCCC2)N1S(=O)(=O)c1ccc(Cl)cc1 (relative stereo) | 4.97
